Toxic doses and inconclusive results are not listed. No stated cut-off is given here; in the data, active means T/C of 150% or more; inactive means T/C below 125%.
Tested on: L1210 leukemia ip in BDF1 mice, survival T/C
Assay: NCI In Vivo Anticancer Drug Screen. Data for tumor model L1210 Leukemia (intraperitoneal) in B6D2F1 (BDF1) mice
Conditions: endpoint: mean survival time, higher = longer survival
How it was run: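 Antitumor effect is assessed in tumor-bearing animals. Survival in the compound arm is compared with a vehicle-dosed control arm and expressed as their quotient.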

[1] = dose: 100.0 mg/kg/injection, schedule: Q01DX009 (ip), vehicle: Klucel (hydroxypropylcellulose) (HPC)
[2] = dose: 200.0 mg/kg/injection, schedule: Q01DX009 (ip), vehicle: Klucel (hydroxypropylcellulose) (HPC)
[3] = dose: 400.0 mg/kg/injection, schedule: Q01DX009 (ip), vehicle: Klucel (hydroxypropylcellulose) (HPC)
[4] = dose: 100.0 mg/kg/injection, schedule: Q04DX003 (ip), vehicle: saline with Tween-80
[5] = dose: 200.0 mg/kg/injection, schedule: Q04DX003 (ip), vehicle: saline with Tween-80
[6] = dose: 400.0 mg/kg/injection, schedule: Q04DX003 (ip), vehicle: saline with Tween-80
[7] = dose: 100.0 mg/kg/injection, schedule: Q01DX009 (ip), vehicle: saline with Tween-80
[8] = dose: 200.0 mg/kg/injection, schedule: Q01DX009 (ip), vehicle: saline with Tween-80
[9] = dose: 400.0 mg/kg/injection, schedule: Q01DX009 (ip), vehicle: saline with Tween-80
[10] = dose: 100.0 mg/kg/injection, schedule: Q01DX009 (ip), vehicle: water
[11] = dose: 100.0 mg/kg/injection, schedule: Q01DX001 (ip), vehicle: saline
[12] = dose: 200.0 mg/kg/injection, schedule: Q01DX001 (ip), vehicle: saline
[13] = dose: 400.0 mg/kg/injection, schedule: Q01DX001 (ip), vehicle: saline

Measured: T/C

COC1OC2COC(c3ccccc3)OC2C(OC(=S)N(C)C)C1OC(=S)N(C)C (centres undefined)
inactive: dose: 100.0 mg/kg/injection, schedule: Q04DX003 (ip), vehicle: saline sonified 94 % of control | dose: 200.0 mg/kg/injection, schedule: Q04DX003 (ip), vehicle: saline sonified 92 % of control | dose: 400.0 mg/kg/injection, schedule: Q04DX003 (ip), vehicle: saline sonified 92 % of control

COC(=O)c1ccccc1NC(=O)Nc1ccc(F)cc1
inactive: [1] 90 % of control | [2] 90 % of control | [3] 90 % of control

CCOC(=O)c1cc(=O)[nH]c2ccc(OC)cc12
inactive: [4] 98 % of control | [5] 102 % of control | [6] 91 % of control

CCOC(=O)CNC(=O)C(CSCc1cccs1)NC(=O)OCc1ccccc1 (centres undefined)
inactive: [7] 100 % of control | [8] 94 % of control | [9] 90 % of control

CC(NC(=O)NC(C)(C)C)c1ccccc1 (centres undefined)
inactive: dose: 100.0 mg/kg/injection, schedule: Q04DX002 (ip), vehicle: Klucel (hydroxypropylcellulose) (HPC) 102 % of control | dose: 200.0 mg/kg/injection, schedule: Q04DX002 (ip), vehicle: Klucel (hydroxypropylcellulose) (HPC) 105 % of control | dose: 400.0 mg/kg/injection, schedule: Q04DX002 (ip), vehicle: Klucel (hydroxypropylcellulose) (HPC) 121 % of control

COc1ccc(CN(C)CCN(C)CCN(C)Cc2ccc(OC)cc2)cc1
inactive: dose: 25.0 mg/kg/injection, schedule: Q01DX009 (ip), vehicle: water 105 % of control | dose: 50.0 mg/kg/injection, schedule: Q01DX009 (ip), vehicle: water 99 % of control | [10] 101 % of control

CC(C)C1NC(=O)C(Cc2c[nH]c3ccccc23)NC1=O (centres undefined)
inactive: [11] 101 % of control | [12] 101 % of control | [13] 91 % of control

CSCC(NC(=O)OCc1ccccc1)C(=O)O (centres undefined)
inactive: dose: 50.0 mg/kg/injection, schedule: Q01DX009 (ip), vehicle: saline with Tween-80 111 % of control | [7] 111 % of control | [8] 101 % of control

O=C(Nc1ccc2c(c1)Cc1cc(Br)ccc1-2)C(F)(F)F
inactive: [7] 97 % of control | [8] 92 % of control | [9] 94 % of control

Cc1ccc(Cl)cc1S
inactive: dose: 16.0 mg/kg/injection, schedule: Q01DX015 (ip), vehicle: saline 96 % of control | dose: 32.0 mg/kg/injection, schedule: Q01DX015 (ip), vehicle: saline 94 % of control | dose: 64.0 mg/kg/injection, schedule: Q01DX015 (ip), vehicle: saline 100 % of control | [10] 100 % of control | dose: 100.0 mg/kg/injection, schedule: Q04DX003 (ip), vehicle: water 94 % of control | dose: 128.0 mg/kg/injection, schedule: Q01DX015 (ip), vehicle: saline 88 % of control

COC(=O)/C=C(\C(=O)OC)N(C)c1ccccc1
inactive: dose: 50.0 mg/kg/injection, schedule: Q01DX001 (ip), vehicle: other 106 % of control

C=CS(=O)(=O)CC
inactive: dose: 25.0 mg/kg/injection, schedule: Q04DX002 (ip), vehicle: saline 119 % of control | dose: 50.0 mg/kg/injection, schedule: Q04DX002 (ip), vehicle: saline 102 % of control | dose: 100.0 mg/kg/injection, schedule: Q04DX002 (ip), vehicle: saline 102 % of control

COC(=O)C1=CC(C(=O)OC)C(C(=O)OC)N2C=CSC2(C)C1 (centres undefined)
inactive: [4] 96 % of control | [5] 96 % of control | [6] 93 % of control

Cc1c(CCO)sc[n+]1Cc1ccccc1[N+](=O)[O-]
inactive: dose: 5.0 mg/kg/injection, schedule: Q01DX001 (ip), vehicle: saline 102 % of control | dose: 10.0 mg/kg/injection, schedule: Q01DX001 (ip), vehicle: saline 100 % of control | dose: 20.0 mg/kg/injection, schedule: Q01DX001 (ip), vehicle: saline 102 % of control | dose: 40.0 mg/kg/injection, schedule: Q01DX001 (ip), vehicle: saline 105 % of control | dose: 80.0 mg/kg/injection, schedule: Q01DX001 (ip), vehicle: saline 98 % of control | [11] 93 % of control

NC(=O)c1ccccc1NC(=O)Nc1ccccc1
inactive: [1] 98 % of control | dose: 100.0 mg/kg/injection, schedule: Q04DX003 (ip), vehicle: Klucel (hydroxypropylcellulose) (HPC) 102 % of control | [2] 94 % of control | dose: 200.0 mg/kg/injection, schedule: Q04DX003 (ip), vehicle: Klucel (hydroxypropylcellulose) (HPC) 96 % of control | [3] 89 % of control | dose: 400.0 mg/kg/injection, schedule: Q04DX003 (ip), vehicle: Klucel (hydroxypropylcellulose) (HPC) 94 % of control

Cc1ccccc1NP1(=O)OCCCN1Cc1ccccc1Cl (centres undefined)
inactive: dose: 50.0 mg/kg/injection, schedule: Q01DX001 (ip), vehicle: carboxymethylcellulose (CMC) 104 % of control | dose: 100.0 mg/kg/injection, schedule: Q01DX001 (ip), vehicle: carboxymethylcellulose (CMC) 96 % of control | dose: 200.0 mg/kg/injection, schedule: Q01DX001 (ip), vehicle: carboxymethylcellulose (CMC) 98 % of control | dose: 400.0 mg/kg/injection, schedule: Q01DX001 (ip), vehicle: carboxymethylcellulose (CMC) 95 % of control

Clc1ccc(N=NNc2ccc(Cl)cc2)cc1
inactive: [7] 91 % of control | [4] 96 % of control | [8] 92 % of control | [5] 105 % of control | [9] 92 % of control | [6] 92 % of control

NC(=O)C(F)(F)c1ccccc1
inactive: [11] 105 % of control | [12] 103 % of control | [13] 102 % of control

CCCCNC(=O)C(=O)c1ccccc1NC(C)=O
inactive: [1] 86 % of control | [2] 87 % of control | [3] 97 % of control

CC(C)C[CH2][Pb]([Cl])([CH2]CC(C)C)[CH2]CC(C)C
inactive: dose: 0.03 mg/kg/injection, schedule: Q04DX002 (ip), vehicle: saline 96 % of control | dose: 0.05 mg/kg/injection, schedule: Q04DX002 (ip), vehicle: saline 102 % of control | dose: 0.1 mg/kg/injection, schedule: Q04DX002 (ip), vehicle: saline 96 % of control | dose: 0.2 mg/kg/injection, schedule: Q04DX002 (ip), vehicle: other 111 % of control | dose: 0.2 mg/kg/injection, schedule: Q04DX003 (ip), vehicle: other 101 % of control | dose: 0.78 mg/kg/injection, schedule: Q04DX003 (ip), vehicle: other 95 % of control
